Here are results for ten compounds from ChEMBL document CHEMBL1128656, “5,6,7,8-Tetrahydroquinolones as antagonists at the glycine site of the NMDA receptor” (Bioorg Med Chem Lett, 1995).

SMILES strings stand for the structures. The source made the active and inactive calls. The rule behind the calls is not given here.

For experiment [1], the target named is Glutamate receptor ionotropic, NMDA 1 (Rattus norvegicus, UniProt P35439). In words: Compound was evaluated for its ability to displace [3H]-L-689,560 from rat cortical membrane.
For experiment [2], the species on record is Mus musculus. Put plainly: Effective dose required to protect against audiogenic seizure in DBA/2 mice. In kind it is functional.
Experiment [3] has as its system Mus musculus. In words: Effective dose required to protect against audiogenic seizure in DBA/2 mice at 10 mg/kg; number protected / number tested is 1/8. The experiment is classed as functional, organism-based. Set-up: dose 10 mg/kg.
The target in experiment [4] is Glutamate receptor ionotropic, NMDA 1 (Rattus norvegicus) (UniProt P35439). In words: Ability of compound to antagonize NMDA induced responses in rat cortical slice. In kind it is functional.
Experiment [5] has as its system Mus musculus. Put plainly: Effective dose required to protect against audiogenic seizure in DBA/2 mice at 20 mg/kg; number protected / number tested is 8/8. In kind it is functional, organism-based. Set-up: dose 20 mg/kg.
The test system of experiment [6] is Mus musculus. In words: Effective dose required to protect against audiogenic seizure in DBA/2 mice at 10 mg/kg; number protected / number tested is 4/8. The experiment is classed as functional, organism-based. Set-up: dose 10 mg/kg.

In general, IC50 refers to the concentration that gives 50% inhibition. Usually ED50 stands for the dose that gives a 50% effect, or the effect in half of the subjects. In general, Kb refers to the equilibrium dissociation constant of an antagonist, usually derived from a functional assay.

On to `CCCc1nc(O)c(-c2ccccc2)c(O)c1C`, for which, in experiment [1], the half-inhibitory concentration (IC50) is around 100 µM.

Compound `Cc1ccc2c(O)c(-c3cccc(Oc4ccccc4)c3)c(=O)[nH]c2c1` registered an IC50 in experiment [1] of 0.02 µM.

As for `CC1CCc2c([nH]c(=O)c(-c3ccccc3)c2O)C1` (stereo not drawn), the half-maximal inhibitory concentration (IC50) in experiment [1] was 3.5 µM.

In the case of `O=c1[nH]c2cc(Cl)ccc2c(O)c1-c1cccc(Oc2ccccc2)c1`, the ED50 in experiment [2] amounted to 0.88 mg/kg.

Consider `CC1CCc2c(nc(O)c(-c3cccc(Oc4ccccc4)c3)c2O)C1` (stereo not drawn), for which the ED50 entry in experiment [3] is “inactive”. This compound showed a Kb in experiment [4] of 350 nM.

For `CC1CCc2c(nc(O)c(-c3ccccc3)c2O)C1` (stereo not drawn), the ED50 entry in experiment [3] is “inactive”. The Kb in experiment [4] stood at 3700 nM. The median effective dose (ED50) entry in experiment [5] was “Active”.

`Cc1[nH]c(=O)c(-c2ccccc2)c(O)c1C` returned an IC50 in experiment [1] above 100 µM.

In experiment [2], `O=c1[nH]c2cc(Cl)ccc2c(O)c1-c1ccccc1` registered a median effective dose (ED50) of 4.5 mg/kg.

On to `Cc1ccc2c(O)c(-c3cccc(Oc4ccccc4)c3)c(O)nc2c1`, for which the ED50 result in experiment [6] was “Weak activity”.

In experiment [1], `CC1CCc2c([nH]c(=O)c(-c3cccc(Oc4ccccc4)c3)c2O)C1` (stereo not drawn) displayed an IC50 of 0.057 µM.
